Assay results: US20260232634A1, “TREATMENT OF PEDIATRIC CANCERS USING GYLCOGEN SYNTHASE KINASE FORM B INHIBITORS” (Actuate Therapeutics Inc., priority 2023, published 2026)
“And” between values parts separate entries of the source, which are not always exact repeats. Identical values can stand only once. “Also recorded” adds a separate entry of the source.

Columns and labels:
[1] = Human pharmacokinetics of 9-ING-41 from study NCT03678883; details: in vivo, intravenous, dose 9.3 mg/kg (current dose)
Text: Example 1. Human Pharmacokinetics of 9-ING-41 from Study

refractory malignancies = experiment: Phase 1/2 study of 9-ING-41 as a single agent or with chemotherapy in pediatric patients with refractory malignancies; format: in vivo, human (pediatric patients); details: for OS (overall survival) / Notes (response): intermediate data; for Best Response / Status Last FUP / Survival: unaudited data
[2] = 1801 adult study, tolerated dose level; format: in vivo, human (adult)
[3] = system: 93T449 liposarcoma cell line; experiment: Western blot analysis after 9-ING-41 treatment; format: cell-based, Human; details: 93T449, pretreated at IC5072, harvested after 48 hours
Experimental: (§1) Saos-2 osteosarcoma and 93T449 liposarcoma cell lines were pretreated at IC5072 with small molecule GSK-3 inhibitor 9-ING-41 (elraglusib). The cells were harvested for western blot analysis after 48 hours of treatment. Additionally, both cancer cell lines as well as TALL-104 T-cells and NK-92 NK cells were treated with 0.5 μM 9-ING-41 for 24 hours and harvested for Luminex cytokine profiling. […] Additionally, an increase in PD-L1 expression was observed. […] Follow-up cytokine profiling is in progress. […] The potential synergistic effect of these two therapies is currently under investigation with co-culture experiments of sarcoma and immune cells. The treatment cohorts for these experiments include 9-ING-41 combined with either anti-PD-L1, anti-PD-1, or anti-CTLA-4 immune checkpoint inhibitors.

[4] = system: Saos-2 osteosarcoma cell line; experiment: Western blot analysis after 9-ING-41 treatment; format: cell-based, Human; details: Saos-2, pretreated at IC5072, harvested after 48 hours
Experimental: as §1

NK-92 NK cells = experiment: Luminex cytokine profiling; format: cell-based; details: NK-92 cells, 0.5 μM 9-ING-41 for 24 hours
Experimental: as §1

TALL-104 T-cells = experiment: Luminex cytokine profiling; format: cell-based; details: 0.5 μM 9-ING-41 for 24 hours
Experimental: as §1

[5] = system: 93T449 liposarcoma cell line; experiment: Luminex cytokine profiling; format: cell-based, Human; details: 93T449, 0.5 μM 9-ING-41 for 24 hours
Experimental: as §1

[6] = system: Saos-2 osteosarcoma cell line; experiment: Luminex cytokine profiling; format: cell-based, Human
Experimental: as §1

[7] = CIC rearranged sarcoma patient, elraglusib 15 mg/kg + Cyclophosphamide/topotecan
[8] = Ependymoma patient, elraglusib 9.3 mg/kg + Cyclophosphamide/topotecan
[9] = Ependymoma patient, elraglusib 12.4 mg/kg, chemotherapy backbone N/A
[10] = Ependymoma patient, elraglusib 15 mg/kg + Irinotecan
[11] = Ewing sarcoma patient, 9-ING-41 9.3 mg/kg + Cyclophosphamide/topotecan
[12] = Ewing sarcoma patient, elraglusib 9.3 mg/kg + Cyclophosphamide/topotecan
[13] = Ewing sarcoma patient, elraglusib 12.4 mg/kg + Cyclophosphamide/topotecan
[14] = Ewing sarcoma patient, elraglusib 15 mg/kg + Cyclophosphamide/topotecan
[15] = Glioblastoma multiforme (GBM) patient, elraglusib 12.4 mg/kg + Cyclophosphamide/topotecan
[16] = Neuroblastoma patient, 9-ING-41 12.4 mg/kg + Cyclophosphamide/topotecan
[17] = Neuroblastoma patient, elraglusib 9.3 mg/kg + Irinotecan
[18] = Neuroblastoma patient, elraglusib 12.4 mg/kg + Cyclophosphamide/topotecan
[19] = Neuroblastoma patient, elraglusib 12.4 mg/kg + Irinotecan
[20] = Neuroblastoma patient, elraglusib 15 mg/kg + Cyclophosphamide/topotecan
[21] = Osteosarcoma patient, elraglusib 9.3 mg/kg + Cyclophosphamide/topotecan
[22] = Rhabdomyosarcoma patient, elraglusib 9.3 mg/kg + Irinotecan
[23] = seven metastatic, refractory Ewing and Ewing-like sarcoma patients, elraglusib+cyclophosphamide/topotecan

`Cn1cc(C2=C(c3coc4ccc(F)cc34)C(=O)NC2=O)c2cc3c(cc21)OCO3` [9-ING-41, 3-(5-Fluorobenzofuran-3-yl)-4-(5-methyl-5H-[1,3]dioxolo[4,5-f]indol-7-yl) pyrrole-2,5-dione] showed an AUC(0-inf) [1] of 45700 ng·h/mL, a Cmax [1] of 6410 ng/mL and a half-life [1] of 18.9 ± 6.3 h. For the same compound, the AUC(0-t) ([1]; read-out: AUC(0-24)) was 42000 ng·h/mL, the “patients with stable disease” value (refractory malignancies; 6 patients (2 NBL, 1 aRMS, 1 EP, 1 OS, 1 GBM)) was 26.1% and the “patients remaining on study treatment ≥3 months” value (refractory malignancies; 8 pts (2 NBL, 2 EP, 1 OS, 1 aRMS, 1 ES, 1 PB)) was 35%. For the same compound, the “OS (overall survival)” value (refractory malignancies; Adrenocortical carcinoma patient, 9-ING-41 15 mg/kg + Cyclophosphamide/topotecan) was 102 days, the “OS (overall survival)” value (refractory malignancies; Alveolar rhabdomyosarcoma patient, 9-ING-41 9.3 mg/kg + Irinotecan) was 375 days and the “OS (overall survival)” value (refractory malignancies; CIC rearranged sarcoma patient, 9-ING-41 15 mg/kg + Cyclophosphamide/topotecan) was 47 days. For the same compound, the “Best Response” value (refractory malignancies; [7]) was “PD (progressive disease)”, the “Status Last FUP” value (refractory malignancies; [7]) was “Dead” and the Survival (refractory malignancies; [7]) was 48 days. The “OS (overall survival)” value (refractory malignancies; Embryonal CNS tumor NOS patient, 9-ING-41 9.3 mg/kg + Irinotecan) was 262 days, the “Best Response” value (refractory malignancies; [8]) was “PD (progressive disease)” and the “Status Last FUP” value (refractory malignancies; [8]) was “Alive”. The Survival (refractory malignancies; [8]) was 182 days, the “Best Response” value (refractory malignancies; [9]) was “SD (stable disease)” and the “Status Last FUP” value (refractory malignancies; [9]) was “Dead”. The Survival (refractory malignancies; [9]) was 440 days, the “Best Response” value (refractory malignancies; [10]) was “SD (stable disease)” and the “Status Last FUP” value (refractory malignancies; [10]) was “Dead”. For the same compound, the Survival (refractory malignancies; [10]) was 757 days and 526 days, the “Notes (response)” value (refractory malignancies; [11]) was “pCR-” and the “OS (overall survival)” value (refractory malignancies; [11]) was 379 days. For the same compound, the “OS (overall survival)” value (refractory malignancies; Ewing sarcoma patient, 9-ING-41 12.4 mg/kg + Cyclophosphamide/topotecan) was 176 days, the “Status Last FUP” value (refractory malignancies; [12]) was “Alive” and the Survival (refractory malignancies; [12]) was 804 days. The “Best Response” value (refractory malignancies; [13]) was “SD (stable disease)”, the “Status Last FUP” value (refractory malignancies; [13]) was “Dead” and the Survival (refractory malignancies; [13]) was 177 days. For the same compound, the “Best Response” value (refractory malignancies; [14]) was “SD (stable disease); also recorded: PR (partial response)”, the “Status Last FUP” value (refractory malignancies; [14]) was “Dead and Alive” and the “OS (overall survival)” value (refractory malignancies; Glioblastoma multiforme (GBM) patient, 9-ING-41 12.4 mg/kg + Cyclophosphamide/topotecan) was 406 days. The “Best Response” value (refractory malignancies; [15]) was “SD (stable disease)”, the “Status Last FUP” value (refractory malignancies; [15]) was “Alive” and the Survival (refractory malignancies; [15]) was 407 days. The “OS (overall survival)” value (refractory malignancies; High grade astrocytoma patient, 9-ING-41 15 mg/kg, combo treatment N/A) was 97 days, the “OS (overall survival)” value (refractory malignancies; Neuroblastoma patient, 9-ING-41 9.3 mg/kg + Irinotecan, 9.3 mg/kg) was 245 days and 389 days and the “Notes (response)” value (refractory malignancies; [16]) was “pCR-”. For the same compound, the “OS (overall survival)” value (refractory malignancies; [16]) was 308 days, the “OS (overall survival)” value (refractory malignancies; Neuroblastoma patient, 9-ING-41 15 mg/kg + Cyclophosphamide/topotecan) was 113 days and the “OS (overall survival)” value (refractory malignancies; Neuroblastoma patient, 9-ING-41 15 mg/kg + Irinotecan) was 68 days. For the same compound, the “Best Response” value (refractory malignancies; [17]) was “SD (stable disease); also recorded: PD (progressive disease)”, the “Status Last FUP” value (refractory malignancies; [17]) was “Dead” and the Survival (refractory malignancies; [17]) was 245 days and 389 days. The “Status Last FUP” value (refractory malignancies; [18]) was “Dead”, the Survival (refractory malignancies; [18]) was 438 days and the “Best Response” value (refractory malignancies; [19]) was “SD (stable disease)”. For the same compound, the “Status Last FUP” value (refractory malignancies; [19]) was “Dead”, the Survival (refractory malignancies; [19]) was 360 days and the “Best Response” value (refractory malignancies; [20]) was “SD (stable disease)”. For the same compound, the “Status Last FUP” value (refractory malignancies; [20]) was “Alive”, the Survival (refractory malignancies; [20]) was 440 days and the “OS (overall survival)” value (refractory malignancies; Osteosarcoma patient, 9-ING-41 9.3 mg/kg + Cyclophosphamide/topotecan) was 389 days. The “Best Response” value (refractory malignancies; [21]) was “SD (stable disease)”, the “Status Last FUP” value (refractory malignancies; [21]) was “Alive” and the Survival (refractory malignancies; [21]) was 481 days. For the same compound, the “OS (overall survival)” value (refractory malignancies; Progressive ependymoma patient, 9-ING-41 9.3 mg/kg + Cyclophosphamide/topotecan) was 407 days, the “OS (overall survival)” value (refractory malignancies; Recurrent ependymoma patient, 9-ING-41 15 mg/kg + Irinotecan) was 403 days and the “OS (overall survival)” value (refractory malignancies; Rhabdomyosarcoma patient, 9-ING-41 15 mg/kg + Cyclophosphamide/topotecan) was 78 days. For the same compound, the “OS (overall survival)” value (refractory malignancies; Rhabdomyosarcoma patient, 9-ING-41 15 mg/kg + Irinotecan) was 19 days, the “Best Response” value (refractory malignancies; [22]) was “SD (stable disease)” and the “Status Last FUP” value (refractory malignancies; [22]) was “Dead”. For the same compound, the Survival (refractory malignancies; [22]) was 375 days, the tolerability (refractory malignancies; heavily pre-treated pediatric patient population) was “well tolerated” and the “reduction of tumor at the 1st tumor assessment (partial remission)” value (refractory malignancies; individual Ewing patients, elraglusib+cyclophosphamide/topotecan) was 52% and 96%. The “tumor response at 1st tumor assessment” value (refractory malignancies; one metastatic, refractory Ewing patient, elraglusib+cyclophosphamide/topotecan, 2 months of treatment) was “complete remission”, the “radiographic and pathologic response” value (refractory malignancies; one patient with recurrent Ewing's sarcoma, after 3 cycles of elraglusib/cyclophosphamide/topotecan) was “complete response” and the “time in remission with no evidence of disease after termination of treatment” value (refractory malignancies; same Ewing patient, stopped all treatments after 4 months) was ~2 years. The “patients continuing on treatment” value (refractory malignancies; [23]) was “three of the seven”, the patients remaining alive (refractory malignancies; [23]) was “Four of the seven” and the “highest currently tolerated dose level” value [2] was “tolerated dose level in the 1801 adult study (15 mg/kg)”. The “PD-L1 expression, western blot” value [3] was “increase”, the “cPARP (apoptotic marker), western blot” value [3] was “increase” and the “PD-L1 expression, western blot” value [4] was “increase”. For the same compound, the “cPARP (apoptotic marker), western blot” value [4] was “increase”, the IL-8 chemokine (NK-92 NK cells) was “increase” and the “soluble TRAIL (TRAIL/TNFSF10)” value (NK-92 NK cells) was “increase”. For the same compound, the CXCL11 (TALL-104 T-cells) was “increase”, the IL-18 (TALL-104 T-cells) was “increased level” and the “growth factor TGF-α” value [5] was “homogenous increase”. For the same compound, the IL-6 ([6]; Saos-2 (only this cancer cell line), 0.5 μM 9-ING-41 for 24 hours) was “increase” and the “growth factor TGF-α” value ([6]; Saos-2, 0.5 μM 9-ING-41 for 24 hours) was “homogenous increase”.
